Experimental findings from paper PMC6164072, “Lysoquinone-TH1, a New Polyphenolic Tridecaketide Produced by Expressing the Lysolipin Minimal PKS II in Streptomyces albus” (Antibiotics, 2018) are described below.

This test deals with T1, PDE-4B2 (Homo sapiens, UniProt Q07343).
T1 construct: gene PDE4B; human recombinant PDE-4B2 (BPS Bioscience no. 60042)
The experiment in a line: PDELight HTS cAMP phosphodiesterase luminescence assay. In kind it is biochemical.

T1 sequence (Q07343 1-564 isoform Q07343-2): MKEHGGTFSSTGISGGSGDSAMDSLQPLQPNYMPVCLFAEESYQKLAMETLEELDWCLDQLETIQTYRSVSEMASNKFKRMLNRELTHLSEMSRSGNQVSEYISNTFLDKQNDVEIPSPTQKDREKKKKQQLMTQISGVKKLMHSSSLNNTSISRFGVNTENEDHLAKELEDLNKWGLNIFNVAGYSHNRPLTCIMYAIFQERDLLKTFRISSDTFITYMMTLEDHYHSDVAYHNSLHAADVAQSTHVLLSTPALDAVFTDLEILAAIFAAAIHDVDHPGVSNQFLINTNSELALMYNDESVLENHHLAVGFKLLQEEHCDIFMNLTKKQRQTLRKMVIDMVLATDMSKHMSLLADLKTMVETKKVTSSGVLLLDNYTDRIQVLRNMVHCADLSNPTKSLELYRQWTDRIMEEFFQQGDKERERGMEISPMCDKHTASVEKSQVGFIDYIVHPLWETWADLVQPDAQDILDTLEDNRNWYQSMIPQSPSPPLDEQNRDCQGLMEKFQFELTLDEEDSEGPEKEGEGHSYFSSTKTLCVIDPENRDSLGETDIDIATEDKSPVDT

Substance lysoquinone-TH1 [compound 7] registered an IC50 of 10 to 20 µM.
